Experimental data taken from patent US20060167099A1, “Use of compositions that increase glutamate receptor activity in treatment of brain injury” (priority 2004, published 2006).
Entries after “also recorded” stand apart in the source; their conditions may differ.

Key:
NMDAR [1] = conditions: NMDA 20 mg/kg i.p. 1 and 2 days after CHI; assessed 7 and 14 days postinjury (P=0.05 and 0.016)
Excerpt: Trauma Model. We used 8- to 12-week-old male Sabra mice (30-35 g) kept under controlled temperature and light conditions with food and water available ad libitum. The study was approved by the Institutional Animal Care Committee of the Hebrew University. Experimental CHI was induced by using a modified weight-drop device developed in our laboratory (Chen et al., J. Neurotrauma 13, 557-568 (1996); Yatziv et al., J. Cereb. Blood Flow Metab. 22, 971-978 (2002)). Briefly, after induction of ether anesthesia, a midline longitudinal incision was performed, the skin was retracted and the skull was exposed. The left anterior frontal area was identified and a Teflon tipped cone (2-mm diameter) was placed 1 mm lateral to the midline, in the midcoronal plane. The head was held in place manually and a 75-g weight was dropped on the cone from a height of 18 cm, resulting in a focal injury to the left hemisphere. After trauma, the mice received supporting oxygenation with 95% O2 for no longer than 2 min and were then returned to their cages. […]
(§1) Drug Treatments. […] The three groups were repeatedly evaluated for neurobehavioral deficits over a 2-week period (see below). […] Cognitive function was evaluated in head-injured and intact […] administered with either NMDA 20 mg/kg or saline 24 and again 48 h postinjury and tested 14 days later for performance in the object recognition test (see below).

NMDAR [2] = assay: Object recognition test 14 days after CHI; format: in vivo, mice; conditions: for Percent of exploration time at the novel object: 4 h after baseline; for Proportion of time exploring two objects at baseline: baseline with two identical objects
Excerpt: Trauma Model. We used 8- to 12-week-old male Sabra mice (30-35 g) kept under controlled temperature and light conditions with food and water available ad libitum. The study was approved by the Institutional Animal Care Committee of the Hebrew University. Experimental CHI was induced by using a modified weight-drop device developed in our laboratory (Chen et al., J. Neurotrauma 13, 557-568 (1996); Yatziv et al., J. Cereb. Blood Flow Metab. 22, 971-978 (2002)). Briefly, after induction of ether anesthesia, a midline longitudinal incision was performed, the skin was retracted and the skull was exposed. The left anterior frontal area was identified and a Teflon tipped cone (2-mm diameter) was placed 1 mm lateral to the midline, in the midcoronal plane. The head was held in place manually and a 75-g weight was dropped on the cone from a height of 18 cm, resulting in a focal injury to the left hemisphere. After trauma, the mice received supporting oxygenation with 95% O2 for no longer than 2 min and were then returned to their cages. Sham controls received anesthesia and skin incision only. For autoradiographic studies, groups of four to five animals per time point were killed 15 min, 1, 4, 8, or 24 h, or 7 days postinjury and brains were quickly removed and frozen on dry ice.
as §1
Evaluation of Performance in the Object Recognition Test. The object recognition test was performed as originally described by Ennaceur and Delacour (Ennaceur & Delacour, Behav. Brain Res. 31, 47-59 (1988)). In the first part of the test (14 days after CHI) mice were placed in the testing cage (a glass aquarium-like transparent box of 60×60 cm) for 1 h habituation. On the following day they were put back into the same cage with two identical objects. The cumulative time spent by the mouse at each of the objects was recorded manually during a 5-min interval by an observer blinded to the treatment received. Four hours later, the mice were reintroduced into the cage, where one of the two objects was replaced by a new one. The time (of 5 min total) spent at each of the objects was recorded. The basic measure is the percent of the total time spent by mice in exploring an object during the testing period, whereby normal healthy rodents will spend relatively more time exploring a new object than a familiar, i.e., “memorized” object.

intact mice = assay: NMDA dose-response experiment in intact mice (tolerability); conditions: i.p.

CN[C@H](CC(=O)O)C(=O)O [NMDA, N-methyl-D-aspartate]
dNSS (extent of neurological recovery) compared to vehicle-treated CHI mice (NMDAR [1]): significantly higher; also recorded: significantly accelerated | Object recognition performance compared to vehicle-treated CHI animals (NMDAR [2]; CHI mice, NMDA 20 mg/kg 24 and 48 h postinjury, 14 days after CHI (P<0.0001)): significantly higher percentage; also recorded: significantly better | Percent of exploration time at the novel object (NMDAR [2]; CHI mice, NMDA 20 mg/kg 24 and 48 h postinjury, tested 14 days after CHI): ≈ 70% | Proportion of time exploring two objects at baseline (NMDAR [2]; CHI+NMDA group): ≈ 50% | Effect on object recognition performance of intact (naive) animals (NMDAR [2]; intact animals, NMDA 20 mg/kg): no effect | Percent of exploration time at the novel object (NMDAR [2]; intact mice treated with NMDA 20 mg/kg): ≈ 70% | Proportion of time exploring two objects at baseline (NMDAR [2]; naive+NMDA group): ≈ 50% | Doses at which significant mortality was observed (intact mice; doses tested between 20 and 100 mg/kg): above 60 mg/kg | Behavioural effects and mortality at the lowest dose (intact mice; lowest dose of 20-100 mg/kg range (20 mg/kg)): hyperactivity and some stereotypy but no convulsions or mortality
